Some test systems named below: COLO 205 colon; SF-295 CNS; SK-MEL-2 melanoma; SK-MEL-28 melanoma; SN12C renal; UACC-62 melanoma; 786-0 renal; MDA-MB-231 breast; PC-3 prostate; T-47D breast.
Holding throughout (experiment): growth of human tumour cells (NCI), 48 h

The structures appear in SMILES notation.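 Protocol summary: plate cells (96-well), add compound at 5 concentrations, incubate 48 h, interpolate endpoints linearly. At the GI50, growth is halved. The concentration for full growth arrest is given as TGI.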

As to `COC(=O)[C@]1(c2ccc(N(C)C)cc2OC)C[C@@H]2CCCN(CCc3c1[nH]c1ccccc31)C2`, the TGI in the assay on COLO 205 colon was 27.3 µM; with SF-295 CNS, above 60.7 µM; in the assay with SK-MEL-2 melanoma, 36.2 µM; in the assay on SK-MEL-28 melanoma it was 35.1 µM; in the assay on SN12C renal, 41 µM; with UACC-62 melanoma it was 32.4 µM.

For `O=C(CN1CCCCC1)Nc1ccc2c(c1)C1Oc3ccccc3CC1CO2` (stereo unspecified), the TGI in the assay with 786-0 renal is 45.8 µM; with COLO 205 colon, 26.2 µM; with MDA-MB-231 breast, 36.8 µM; with PC-3 prostate it was 35 µM; in the assay on SF-295 CNS, 36.4 µM; in the assay on SK-MEL-2 melanoma, 35.5 µM. For the same compound, the TGI was above 100 µM in the assay with SN12C renal, 52 µM in the assay on T-47D breast and 34.1 µM in the assay with UACC-62 melanoma.

Consider `Cc1cc(OCCOCCC(F)(F)P(=O)(O)O)ccc1CCc1cnc2c(N)nc3cc(CCC(=O)O)ccc3c2c1`, for which the GI50 with COLO 205 colon, in the assay with MDA-MB-231 breast, in the assay on PC-3 prostate, with SF-295 CNS, in the assay with SK-MEL-2 melanoma and with SK-MEL-28 melanoma was above 100 µM in each case. Besides, the GI50 in the assay on SN12C renal, in the assay on T-47D breast and with UACC-62 melanoma was above 100 µM throughout. The TGI in the assay with COLO 205 colon, in the assay with MDA-MB-231 breast, in the assay on PC-3 prostate, in the assay with SF-295 CNS, with SK-MEL-2 melanoma and with SK-MEL-28 melanoma was above 100 µM each time. For the same compound, the TGI in the assay with SN12C renal, in the assay with T-47D breast and in the assay on UACC-62 melanoma was above 100 µM in each case.

With `Cc1ccc(-c2cc[n+]3c(n2)oc2ccccc23)cc1`, the TGI in the assay with 786-0 renal is 29.5 µM; with COLO 205 colon it was 68.5 µM; in the assay with MDA-MB-231 breast it was above 100 µM; with SF-295 CNS it was above 100 µM; in the assay on SK-MEL-2 melanoma, 46.6 µM; with SK-MEL-28 melanoma, 57.8 µM. In addition, the TGI with SN12C renal was above 100 µM; in the assay with T-47D breast, above 100 µM; in the assay on UACC-62 melanoma, 97.7 µM.

On to `Nc1ccc2ccc(N3CCNCC3)nc2n1`, for which the TGI in the assay on 786-0 renal, with COLO 205 colon, in the assay with MDA-MB-231 breast, with PC-3 prostate, with SF-295 CNS and in the assay on SK-MEL-2 melanoma was above 100 µM in each case. Also, the TGI in the assay with SK-MEL-28 melanoma, in the assay with SN12C renal and with UACC-62 melanoma was above 100 µM throughout.

`COc1cc(C2C3=C(CCCC3=O)N(c3ccc(C)cc3)C3=C2C(=O)CCC3)c([N+](=O)[O-])cc1OC`: the TGI with 786-0 renal, with PC-3 prostate, in the assay with SK-MEL-28 melanoma, with SN12C renal and in the assay with UACC-62 melanoma was above 100 µM in each case.

Turning to `CCCCc1ccc(Nc2nc(Cl)c3c(ncn3C3CC(Oc4ccc(C)cc4)C(COc4ccc(C)cc4)O3)n2)cc1` (stereo unspecified), the TGI in the assay on 786-0 renal, in the assay with COLO 205 colon, in the assay on MDA-MB-231 breast, in the assay with PC-3 prostate, with SF-295 CNS and in the assay with SK-MEL-2 melanoma was above 100 µM throughout. In addition, the TGI in the assay with SN12C renal, with T-47D breast and in the assay on UACC-62 melanoma was above 100 µM throughout.

`Cc1ccc(S(=O)(=O)N/N=C2\CC3CC4CCC2C4C3)cc1` (stereo unspecified): the TGI in the assay with 786-0 renal, in the assay on COLO 205 colon, with MDA-MB-231 breast, in the assay with PC-3 prostate, in the assay on SF-295 CNS and in the assay on SK-MEL-28 melanoma was above 100 µM throughout. Besides, the TGI in the assay with SN12C renal, with T-47D breast and in the assay on UACC-62 melanoma was above 100 µM in each case.

Consider `COC(=O)CNC(=O)CCC(C)[C@H]1CCC2C3C(C[C@H](OC(C)=O)[C@@]21C)[C@@]1(C)CCC2(C[C@H]1C[C@H]3OC(C)=O)OOC1(CC[C@]3(C)C4C[C@H](OC(C)=O)[C@@]5(C)C(CC[C@@H]5C(C)CCC(=O)NCC(=O)OC)C4[C@H](OC(C)=O)C[C@@H]3C1)OO2` (stereo partly specified), for which the TGI came out at 1.42 µM with 786-0 renal; 5.96 µM in the assay with MDA-MB-231 breast; 8.69 µM in the assay with PC-3 prostate; 24.7 µM in the assay with SF-295 CNS; 1.66 µM with SK-MEL-2 melanoma; 9.52 µM with SK-MEL-28 melanoma. The compound further came in with a TGI in the assay with T-47D breast of 22.4 µM.

As to `CCCOP(=O)(OCCC)OC(C(F)(F)F)C(F)(F)F`, the TGI in the assay with MDA-MB-231 breast, in the assay on SK-MEL-2 melanoma, in the assay with SK-MEL-28 melanoma, with SN12C renal, with T-47D breast and in the assay on UACC-62 melanoma was above 100 µM each time.

With `O=[N+]([O-])/C=C(\CS(=O)(=O)c1ccccc1)c1ccc2c(c1)OCO2`, the TGI with 786-0 renal is above 100 µM; in the assay on COLO 205 colon, above 100 µM; in the assay with MDA-MB-231 breast, 64.1 µM; with SF-295 CNS, above 100 µM; in the assay on SK-MEL-28 melanoma, above 100 µM; in the assay on SN12C renal it was above 100 µM. The TGI in the assay on T-47D breast and in the assay with UACC-62 melanoma was above 100 µM each time.

As for `O=c1[nH]nc(Nc2ccccc2)c2nnn(C3CCCCC3)c12`, the TGI in the assay with 786-0 renal, with COLO 205 colon, in the assay on MDA-MB-231 breast, in the assay with PC-3 prostate, with SF-295 CNS and in the assay on SK-MEL-2 melanoma was above 100 µM throughout. The TGI with SK-MEL-28 melanoma and in the assay with SN12C renal was above 100 µM each time.

`COc1cc2c(cc1Oc1c(Oc3c(O)c(OC)cc4c3C(CC(C)C)N(C)CC4)c(OC)cc3c1C(CC(C)C)N(C)CC3)C(CC(C)C)N(C)CC2` (stereo unspecified): the TGI with COLO 205 colon is 0.837 µM; in the assay with SF-295 CNS, 5.04 µM; in the assay on SK-MEL-2 melanoma, 3.67 µM; in the assay on SK-MEL-28 melanoma it was 13.6 µM; with SN12C renal, 3.53 µM; in the assay with UACC-62 melanoma, 4.02 µM.

Consider `O=C(Nc1ccccc1Cl)c1ccc([N+](=O)[O-])cc1`, for which the TGI in the assay on 786-0 renal, with COLO 205 colon, in the assay with SF-295 CNS, in the assay on SK-MEL-2 melanoma, in the assay with SK-MEL-28 melanoma and in the assay on SN12C renal was above 100 µM each time. Also, the TGI in the assay on UACC-62 melanoma was above 100 µM.

Source of the values: PubChem BioAssay (NCI).
